Where a name gives a salt, the structure may show the parent alone.
What follows are compounds tested against T1, PknB (Mycobacterium tuberculosis, UniProt P9WI81) (assay: biochemical). Conditions: not given.
T1 construct: made in house
T1 sequence (P9WI81 whole entry): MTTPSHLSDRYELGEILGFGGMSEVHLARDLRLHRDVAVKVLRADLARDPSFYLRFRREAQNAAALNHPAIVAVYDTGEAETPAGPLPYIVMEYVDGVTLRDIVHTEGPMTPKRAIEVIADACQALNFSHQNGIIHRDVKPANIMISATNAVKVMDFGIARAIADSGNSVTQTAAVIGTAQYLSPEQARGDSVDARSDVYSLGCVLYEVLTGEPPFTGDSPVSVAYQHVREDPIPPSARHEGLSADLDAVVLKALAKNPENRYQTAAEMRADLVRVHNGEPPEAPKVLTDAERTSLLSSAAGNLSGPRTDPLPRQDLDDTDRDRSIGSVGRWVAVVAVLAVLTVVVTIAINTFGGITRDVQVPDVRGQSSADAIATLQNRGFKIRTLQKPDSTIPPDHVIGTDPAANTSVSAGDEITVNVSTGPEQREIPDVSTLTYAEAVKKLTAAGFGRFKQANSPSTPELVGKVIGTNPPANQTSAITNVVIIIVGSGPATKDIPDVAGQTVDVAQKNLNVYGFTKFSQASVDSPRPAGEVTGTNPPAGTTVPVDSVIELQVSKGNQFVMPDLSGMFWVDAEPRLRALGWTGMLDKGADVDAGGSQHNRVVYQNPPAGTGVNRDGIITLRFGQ
Set-up: species or system M. tuberculosis
`C#Cc1cnc(-c2ccc(C(=O)OC)s2)nc1Nc1cc(C2CC2)[nH]n1` [Compound 151, Methyl 5-(4-(5-cyclopropyl-1H-pyrazol-3-ylamino)-5-ethynylpyrimidin-2-yl)thiophene-2-carboxylate hydrochloride] was tested, and the “Ki Values” was “A**, A*”. `COC(=O)c1ccc(-c2ncc(Cl)c(Nc3cc(C4CC4)n[nH]3)n2)s1` [Compound 154, Methyl5-(5-chloro-4-(3-cyclopropyl-1H-pyrazol-5-ylamino)pyrimidin-2-yl)thiophene-2-carboxylate hydrochloride] showed a Ki of 10 to 50 nM.

Same assay, conditions: 3 nM PknB, 6 uM GarA, 3 μM ATP, 30 min; competitive tight-binding fit; several symbols in a cell = repeat determinations
`O=C(O)c1cccc(-c2ncc(Cl)c(Nc3cc(C4CC4)[nH]n3)n2)c1` [Compound 142, 3-[5-chloro-4-[(5-cyclopropyl-1H-pyrazol-3-yl)amino]-pyrimidin-2-yl]benzoic acid] was tested, and the “Ki Values” was “A*, A, B**, B**”.

Same assay, conditions: 3 nM PknB, 6 uM GarA, 3 μM ATP, 30 min; competitive tight-binding fit; several symbols in a cell = repeat determinations; read-out: Ki Values
For `CC(=O)c1ccc(-c2ncc(F)c(Nc3cc(C4CC4)[nH]n3)n2)s1` [Compound 137, 1-(5-(4-(5-cyclopropyl-1H-pyrazol-3-ylamino)-5-fluoropyrimidin-2-yl)thiophen-2-yl)ethanone], the Ki was 10 to 50 nM. `N#Cc1ccc(-c2ncc(Cl)c(Nc3cc(C4CC4)[nH]n3)n2)s1` [Compound 140, 5-(5-chloro-4-(5-cyclopropyl-1H-pyrazol-3-ylamino)pyrimidin-2-yl)thiophene-2-carbonitrile] was tested, and the Ki was 10 to 50 nM. `N#CCc1ccc(-c2ncc(Cl)c(Nc3cc(C4CC4)n[nH]3)n2)s1` [Compound 143, 2-(5-(5-chloro-4-(3-cyclopropyl-1H-pyrazol-5-ylamino)pyrimidin-2-yl)thiophen-2-yl)acetonitrile] gave a Ki of 1 to 10 nM. Work on `Cc1cnc(-c2ccc(S(N)(=O)=O)s2)nc1Nc1cc(C2CC2)n(C)n1` [Compound 150, 5-[4-[(5-cyclopropyl-1-methyl-pyrazol-3-yl)amino]-5-methyl-pyrimidin-2-yl]thiophene-2-sulfonamide] yielded a Ki of over 4000 nM. Work on `O=S(=O)(NC1CCOC1)c1ccc(-c2ncc(Cl)c(Nc3cc(C4CC4)[nH]n3)n2)s1` (stereo not drawn) [Compound 152, 5-[5-chloro-4-[(5-cyclopropyl-1H-pyrazol-3-yl)amino]-pyrimidin-2-yl]-N-tetrahydrofuran-3-yl-thiophene-2-sulfonamide] yielded a Ki of 10 to 50 nM. Compound `C#Cc1cnc(-c2ccc(S(C)(=O)=O)cc2)nc1Nc1cc(C2CC2)[nH]n1` [Compound 153, N-(5-Cyclopropyl-1H-pyrazol-3-yl)-5-ethynyl-2-(4-(methylsulfonyl)phenyl)pyrimidin-4-amine] has a Ki of 10 to 50 nM. Work on `NS(=O)(=O)c1ccccc1-c1ncc(Cl)c(Nc2cc(C3CC3)[nH]n2)n1` [Compound 155, 2-[5-chloro-4-[(5-cyclopropyl-1H-pyrazol-3-yl)amino]-pyrimidin-2-yl]benzenesulfonamide] yielded a Ki of over 4000 nM. Compound `O=C(O)c1ccc(-c2ncc(Cl)c(Nc3cc(C4CC4)n[nH]3)n2)s1` [Compound 156, 5-(5-chloro-4-(3-cyclopropyl-1H-pyrazol-5-ylamino)pyrimidin-2-yl)thiophene-2-carboxylic acid] has a Ki of 50 to 100 nM. `C#Cc1cnc(-c2ccc(C#N)s2)nc1Nc1cc(C2CC2)[nH]n1` [Compound 157, 5-(4-(5-Cyclopropyl-1H-pyrazol-3-ylamino)-5-ethynylpyrimidin-2-yl)thiophene-2-carbonitrile] showed a Ki of 1 to 10 nM. `O=S(=O)(NCC(F)(F)F)c1ccc(-c2ncc(Cl)c(Nc3cc(C4CC4)[nH]n3)n2)s1` [Compound 158, 5-[5-chloro-4-[(5-cyclopropyl-1H-pyrazol-3-yl)amino]-pyrimidin-2-yl]-N-(2,2,2-trifluoroethyl)thiophene-2-sulfonamide] gave a Ki of 10 to 50 nM. `COc1ccc(-c2ncc(Cl)c(Nc3cc(C4CC4)[nH]n3)n2)cc1S(N)(=O)=O` [Compound 161, 5-[5-chloro-4-[(5-cyclopropyl-1H-pyrazol-3-yl)amino]-pyrimidin-2-yl]-2-methoxy-benzenesulfonamide] was tested, and the Ki was 50 to 100 nM. Compound `CC(C)(C)NS(=O)(=O)c1ccc(-c2ncc(C(F)(F)F)c(Nc3cc(C4CC4)n[nH]3)n2)s1` [Compound 162, 5-[4-[(5-cyclopropyl-2H-pyrazol-3-yl)amino]-5-(trifluoromethyl)pyrimidin-2-yl]-N-tert-butyl-thiophene-2-sulfonamide] has a Ki of 500 to 1000 nM.
